Data: patent US10508089B2, “Use of N-(1,3,4-Oxadiazol-2-yl)arylcarboxamides or their salts for controlling unwanted plants in areas of transgenic crop plants being tolerant to HPPD inhibitor herbicides” (BASF SE, priority 2014, dated 2019)
Read-outs that look alike come from different tables or passages of the source.

Key:
[1] = system: T2 soybean events expressing PfHPPD-Evo41; assay type: in vivo; conditions: 14 days after treatment
[2] = system: T2 soybean events expressing PfHPPD-Evo40; assay type: in vivo; conditions: 14 days after treatment
wild type soybean Merlin = assay type: in vivo; conditions: 14 days after treatment, total 4
[3] = molecular target: PfHPPD Evo 41 SEQ ID No 29 (Pseudomonas sp., UniProt P80064, A172V/A339Q/A53E/D148E/D45N/E105D/E287Q/E300V/E334P/F143Y/G286D/G335W/H150N/H254A/H63N/I158V/I187A/I249V/K338A/K92N/L18F/N24G/N280D/S245T/S257K/S301E/T205S/V65I); assay: biochemical; design: species or system Pseudomonas fluorescens
FMP 37 SEQ ID No 9 = FMP 37 SEQ ID No 9 (Blepharisma japonicum, UniProt A8R3H6); assay: Determination of HPPD activity in presence of N-(1,3,4-Oxadiazol-2-yl)arylcarboxamides (pI50); assay type: biochemical; conditions: negative log of molar concentration; inhibitor 0.1 to 100 μM; room temperature; 600 μM HPP
Protocol: (§1) HPPD activity was measured at room temperature by adding appropriate amounts of HPPD to a solution of 200 mM Tris-HCl pH 7.6, 10 mM ascorbate, 20 μM FeSO4, 650 units of catalase, 8 μg HGA dioxygenase (HGA: homogentisate) and 600 μM HPP in a total volume of 1 ml. Initial reaction rates in the absence or presence of inhibitors were determined from the increase in absorbance at 318 nm due to the formation of maleylacetoacetate (ϵ318=11,900 M−1 cm−1). pI50-values (the negative log values of the concentration of inhibitor necessary to inhibit 50% of the enzyme activity in molar concentration were determined from dose-response plots of HPPD activity versus inhibitor concentrations tested (0.1 to 100 μM) using the 4 Parameter Logistic Model or Sigmoidal Dose-Response Model of the ID Business Solutions Ltd. XLfit software suite. Due to the UV absorption of the HPPD inhibitors tested, inhibitor concentrations >100 μM could not be tested. In cases, the symbol “>” is used this means that the value was far higher than the one indicated but could not be precisely calculated within in the range of concentration of inhibitor tested.
(§2) In the 1st column of Table 8, the chemical compound employed in the assay is named (according to the numbering of the Tables 1 to 7, above). In columns 2, 3, 4, and 5 the pI50-values of the corresponding chemical compounds against various HPPD enzymes (name and SEQ ID Nos are indicated, respectively) are given.

Avena HPPD SEQ ID No 2 = Avena HPPD SEQ ID No 2 (Avena sativa, UniProt A0ACD5V6K6); assay: as above; assay type: biochemical; conditions: negative log of molar concentration; inhibitor 0.1 to 100 μM; room temperature; 600 μM HPP
Protocol: as §1, §2

[4] = system: T3 cotton events expressing PfHPPD-Evo41; assay type: in vivo; conditions: 200 g Al/ha, post-emergence V3, scored after 14 days, field
wild type soybean Thorne = assay type: in vivo; conditions: 14 days after treatment, total 4
[5] = system: T2 soybean events expressing PfHPPD-Evo33; assay type: in vivo; conditions: 14 days after treatment
[6] = molecular target: PfHPPD Evo 40 SEQ ID No 27 (Pseudomonas sp., UniProt P80064, A172V/A339E/A53E/D148E/D45N/E105D/E287Q/E300V/E334P/F143Y/G286D/G335S/H150N/H254A/H63N/I158V/I187A/I249V/K92N/L18F/N24G/N280D/S245T/S257K/S301E/T205S/V65I); assay: biochemical; design: species or system Pseudomonas fluorescens
PfHPPD Evo 40 SEQ ID No 27, sequence (P80064 1-354 with tags or gaps with the stated changes limits assumed): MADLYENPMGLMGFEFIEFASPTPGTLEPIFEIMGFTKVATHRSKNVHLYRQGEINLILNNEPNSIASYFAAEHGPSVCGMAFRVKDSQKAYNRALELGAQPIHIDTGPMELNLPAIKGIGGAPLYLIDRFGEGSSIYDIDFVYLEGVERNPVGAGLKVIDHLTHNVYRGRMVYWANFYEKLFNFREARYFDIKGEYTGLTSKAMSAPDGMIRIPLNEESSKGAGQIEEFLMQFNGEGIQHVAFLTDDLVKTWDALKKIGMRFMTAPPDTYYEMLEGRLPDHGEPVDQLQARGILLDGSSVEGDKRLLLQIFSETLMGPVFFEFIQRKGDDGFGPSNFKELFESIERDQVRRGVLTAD

Avena HPPD SEQ ID No 2, sequence (A0ACD5V6K6 entry or part of it): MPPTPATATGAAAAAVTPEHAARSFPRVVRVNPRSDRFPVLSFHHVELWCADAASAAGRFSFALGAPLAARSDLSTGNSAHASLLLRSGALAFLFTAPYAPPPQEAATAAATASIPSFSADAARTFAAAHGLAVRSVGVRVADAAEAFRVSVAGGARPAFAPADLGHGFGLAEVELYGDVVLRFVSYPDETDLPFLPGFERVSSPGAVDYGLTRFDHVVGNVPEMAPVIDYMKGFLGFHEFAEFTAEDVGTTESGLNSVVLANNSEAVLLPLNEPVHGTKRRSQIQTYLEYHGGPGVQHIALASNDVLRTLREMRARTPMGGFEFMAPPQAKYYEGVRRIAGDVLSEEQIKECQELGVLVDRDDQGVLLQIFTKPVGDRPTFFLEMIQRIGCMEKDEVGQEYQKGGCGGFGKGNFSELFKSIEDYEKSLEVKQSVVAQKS
PfHPPD Evo 41 SEQ ID No 29, sequence (P80064 1-354 with tags or gaps with the stated changes limits assumed): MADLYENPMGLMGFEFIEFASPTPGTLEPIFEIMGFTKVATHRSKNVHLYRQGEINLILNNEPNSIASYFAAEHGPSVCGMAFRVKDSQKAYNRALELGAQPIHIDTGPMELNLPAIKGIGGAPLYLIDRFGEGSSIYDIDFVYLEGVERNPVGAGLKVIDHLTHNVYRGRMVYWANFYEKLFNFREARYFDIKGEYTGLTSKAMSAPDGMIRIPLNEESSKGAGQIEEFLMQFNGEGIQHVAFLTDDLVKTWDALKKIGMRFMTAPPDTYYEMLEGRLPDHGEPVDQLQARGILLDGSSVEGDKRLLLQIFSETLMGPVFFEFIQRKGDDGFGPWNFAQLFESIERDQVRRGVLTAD
FMP 37 SEQ ID No 9, sequence (A8R3H6 entry or part of it): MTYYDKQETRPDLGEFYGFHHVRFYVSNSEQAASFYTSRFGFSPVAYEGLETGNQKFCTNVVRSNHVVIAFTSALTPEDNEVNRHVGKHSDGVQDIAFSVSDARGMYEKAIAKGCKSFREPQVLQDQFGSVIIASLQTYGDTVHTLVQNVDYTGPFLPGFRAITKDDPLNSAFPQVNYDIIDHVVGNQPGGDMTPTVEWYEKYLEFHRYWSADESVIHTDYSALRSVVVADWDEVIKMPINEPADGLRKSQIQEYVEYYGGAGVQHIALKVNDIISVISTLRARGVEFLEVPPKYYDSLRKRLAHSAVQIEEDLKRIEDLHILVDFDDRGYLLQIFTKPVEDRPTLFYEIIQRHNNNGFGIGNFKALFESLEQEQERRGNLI

## Cc1nnc(NC(=O)c2ccc(C(F)(F)F)c(S(C)(=O)=O)c2C)o1 [Compound 2-145]
[1]; 6.25 g Al/ha, total 12
  Number of plants categorized herbicide tolerance “0” (marginal; 41%-100% damaged leaf area): 0
  Number of plants categorized herbicide tolerance “1” (moderate; 26%-40% damaged leaf area): 1
  Number of plants categorized herbicide tolerance “2” (good; 16%-25% damaged leaf area): 0
  Number of plants categorized herbicide tolerance “3” (high; less than or equal to 15% damaged leaf area): 11
[1]; 25 g Al/ha, total 16
  Number of plants categorized herbicide tolerance “0” (marginal; 41%-100% damaged leaf area): 0
  Number of plants categorized herbicide tolerance “1” (moderate; 26%-40% damaged leaf area): 0
  Number of plants categorized herbicide tolerance “2” (good; 16%-25% damaged leaf area): 0
  Number of plants categorized herbicide tolerance “3” (high; less than or equal to 15% damaged leaf area): 16
[1]; 50 g Al/ha, total 4
  Number of plants categorized herbicide tolerance “0” (marginal; 41%-100% damaged leaf area): 0
  Number of plants categorized herbicide tolerance “1” (moderate; 26%-40% damaged leaf area): 0
  Number of plants categorized herbicide tolerance “2” (good; 16%-25% damaged leaf area): 2
  Number of plants categorized herbicide tolerance “3” (high; less than or equal to 15% damaged leaf area): 2
[1]; 75 g Al/ha, total 4
  Number of plants categorized herbicide tolerance “0” (marginal; 41%-100% damaged leaf area): 0
  Number of plants categorized herbicide tolerance “1” (moderate; 26%-40% damaged leaf area): 0
  Number of plants categorized herbicide tolerance “2” (good; 16%-25% damaged leaf area): 0
  Number of plants categorized herbicide tolerance “3” (high; less than or equal to 15% damaged leaf area): 4
[2]; 6.25 g Al/ha, total 8
  Number of plants categorized herbicide tolerance “0” (marginal; 41%-100% damaged leaf area): 0
  Number of plants categorized herbicide tolerance “1” (moderate; 26%-40% damaged leaf area): 0
  Number of plants categorized herbicide tolerance “2” (good; 16%-25% damaged leaf area): 0
  Number of plants categorized herbicide tolerance “3” (high; less than or equal to 15% damaged leaf area): 8
[2]; 25 g Al/ha, total 12
  Number of plants categorized herbicide tolerance “0” (marginal; 41%-100% damaged leaf area): 0
  Number of plants categorized herbicide tolerance “1” (moderate; 26%-40% damaged leaf area): 0
  Number of plants categorized herbicide tolerance “2” (good; 16%-25% damaged leaf area): 0
  Number of plants categorized herbicide tolerance “3” (high; less than or equal to 15% damaged leaf area): 12
[2]; 50 g Al/ha, total 4
  Number of plants categorized herbicide tolerance “0” (marginal; 41%-100% damaged leaf area): 0
  Number of plants categorized herbicide tolerance “1” (moderate; 26%-40% damaged leaf area): 0
  Number of plants categorized herbicide tolerance “2” (good; 16%-25% damaged leaf area): 0
  Number of plants categorized herbicide tolerance “3” (high; less than or equal to 15% damaged leaf area): 4
[2]; 75 g Al/ha, total 4
  Number of plants categorized herbicide tolerance “0” (marginal; 41%-100% damaged leaf area): 0
  Number of plants categorized herbicide tolerance “1” (moderate; 26%-40% damaged leaf area): 0
  Number of plants categorized herbicide tolerance “2” (good; 16%-25% damaged leaf area): 0
  Number of plants categorized herbicide tolerance “3” (high; less than or equal to 15% damaged leaf area): 4
Wild type soybean Merlin; Merlin (wt), 6.25 g Al/ha
  Number of plants categorized herbicide tolerance “0” (marginal; 41%-100% damaged leaf area): 4
  Number of plants categorized herbicide tolerance “1” (moderate; 26%-40% damaged leaf area): 0
  Number of plants categorized herbicide tolerance “2” (good; 16%-25% damaged leaf area): 0
  Number of plants categorized herbicide tolerance “3” (high; less than or equal to 15% damaged leaf area): 0
Wild type soybean Merlin; Merlin, 25 g Al/ha
  Number of plants categorized herbicide tolerance “0” (marginal; 41%-100% damaged leaf area): 4
  Number of plants categorized herbicide tolerance “1” (moderate; 26%-40% damaged leaf area): 0
  Number of plants categorized herbicide tolerance “2” (good; 16%-25% damaged leaf area): 0
  Number of plants categorized herbicide tolerance “3” (high; less than or equal to 15% damaged leaf area): 0
[3]
  IC50: 5.01 µM
FMP 37 SEQ ID No 9
  IC50: 10 µM
Avena HPPD SEQ ID No 2
  IC50: 1.58 µM
[4]; cotton event Evo41/1
  Average maximum phytotoxicity scoring: 3 (“3” = high tolerance; 0%-10% damaged leaf area)
[4]; cotton event Evo41/2
  Average maximum phytotoxicity scoring: 3 (“3” = high tolerance; 0%-10% damaged leaf area)
[4]; cotton event Evo41/3
  Average maximum phytotoxicity scoring: 3 (“3” = high tolerance; 0%-10% damaged leaf area)
[4]; cotton event Evo41/4
  Average maximum phytotoxicity scoring: 3 (“3” = high tolerance; 0%-10% damaged leaf area)
[4]; cotton event Evo41/5
  Average maximum phytotoxicity scoring: 3 (“3” = high tolerance; 0%-10% damaged leaf area)
[4]; cotton event Evo41/6
  Average maximum phytotoxicity scoring: 3 (“3” = high tolerance; 0%-10% damaged leaf area)
[4]; cotton event Evo41/7
  Average maximum phytotoxicity scoring: 3 (“3” = high tolerance; 0%-10% damaged leaf area)
[4]; cotton event Evo41/8
  Average maximum phytotoxicity scoring: 3 (“3” = high tolerance; 0%-10% damaged leaf area)
[4]; cotton event Evo41/9
  Average maximum phytotoxicity scoring: 3 (“3” = high tolerance; 0%-10% damaged leaf area)
[4]; cotton event Evo41/10
  Average maximum phytotoxicity scoring: 3 (“3” = high tolerance; 0%-10% damaged leaf area)
[4]; cotton event Evo41/11
  Average maximum phytotoxicity scoring: 3 (“3” = high tolerance; 0%-10% damaged leaf area)
[4]; cotton event Evo41/12
  Average maximum phytotoxicity scoring: 2 (“2” = good tolerance; 11%-15% damaged leaf area)
[4]; cotton event Evo41/13
  Average maximum phytotoxicity scoring: 3 (“3” = high tolerance; 0%-10% damaged leaf area)
[4]; cotton event Evo41/14
  Average maximum phytotoxicity scoring: 3 (“3” = high tolerance; 0%-10% damaged leaf area)
[4]; cotton event Evo41/15
  Average maximum phytotoxicity scoring: 3 (“3” = high tolerance; 0%-10% damaged leaf area)
Wild type soybean Thorne; Thorne (wt), 6.25 g Al/ha
  Number of plants categorized herbicide tolerance “0” (marginal; 41%-100% damaged leaf area): 4
  Number of plants categorized herbicide tolerance “1” (moderate; 26%-40% damaged leaf area): 0
  Number of plants categorized herbicide tolerance “2” (good; 16%-25% damaged leaf area): 0
  Number of plants categorized herbicide tolerance “3” (high; less than or equal to 15% damaged leaf area): 0
Wild type soybean Thorne; Thorne, 25 g Al/ha
  Number of plants categorized herbicide tolerance “0” (marginal; 41%-100% damaged leaf area): 4
  Number of plants categorized herbicide tolerance “1” (moderate; 26%-40% damaged leaf area): 0
  Number of plants categorized herbicide tolerance “2” (good; 16%-25% damaged leaf area): 0
  Number of plants categorized herbicide tolerance “3” (high; less than or equal to 15% damaged leaf area): 0
[5]; 6.25 g Al/ha, total 12
  Number of plants categorized herbicide tolerance “0” (marginal; 41%-100% damaged leaf area): 0
  Number of plants categorized herbicide tolerance “1” (moderate; 26%-40% damaged leaf area): 0
  Number of plants categorized herbicide tolerance “2” (good; 16%-25% damaged leaf area): 0
  Number of plants categorized herbicide tolerance “3” (high; less than or equal to 15% damaged leaf area): 12
[5]; 25 g Al/ha, total 16
  Number of plants categorized herbicide tolerance “0” (marginal; 41%-100% damaged leaf area): 1
  Number of plants categorized herbicide tolerance “1” (moderate; 26%-40% damaged leaf area): 1
  Number of plants categorized herbicide tolerance “2” (good; 16%-25% damaged leaf area): 0
  Number of plants categorized herbicide tolerance “3” (high; less than or equal to 15% damaged leaf area): 14
[5]; 50 g Al/ha, total 4
  Number of plants categorized herbicide tolerance “0” (marginal; 41%-100% damaged leaf area): 0
  Number of plants categorized herbicide tolerance “1” (moderate; 26%-40% damaged leaf area): 0
  Number of plants categorized herbicide tolerance “2” (good; 16%-25% damaged leaf area): 1
  Number of plants categorized herbicide tolerance “3” (high; less than or equal to 15% damaged leaf area): 3
[5]; 75 g Al/ha, total 4
  Number of plants categorized herbicide tolerance “0” (marginal; 41%-100% damaged leaf area): 0
  Number of plants categorized herbicide tolerance “1” (moderate; 26%-40% damaged leaf area): 0
  Number of plants categorized herbicide tolerance “2” (good; 16%-25% damaged leaf area): 0
  Number of plants categorized herbicide tolerance “3” (high; less than or equal to 15% damaged leaf area): 4
[6]
  IC50: 5.01 µM
